Data: paper PMC4846659, “Estrogen Receptor-Targeted Contrast Agents for Molecular Magnetic Resonance Imaging of Breast Cancer Hormonal Status” (Frontiers in Oncology, 2016)

Target: ERα (estrogen receptor α) (Homo sapiens, UniProt P03372)
Assay: competitive radioligand binding assay with tritiated […]β-estradiol on recombinant hERα
Parameters: gene ESR1; recombinant hERα

Sequence of ERα (estrogen receptor α) (P03372 whole entry): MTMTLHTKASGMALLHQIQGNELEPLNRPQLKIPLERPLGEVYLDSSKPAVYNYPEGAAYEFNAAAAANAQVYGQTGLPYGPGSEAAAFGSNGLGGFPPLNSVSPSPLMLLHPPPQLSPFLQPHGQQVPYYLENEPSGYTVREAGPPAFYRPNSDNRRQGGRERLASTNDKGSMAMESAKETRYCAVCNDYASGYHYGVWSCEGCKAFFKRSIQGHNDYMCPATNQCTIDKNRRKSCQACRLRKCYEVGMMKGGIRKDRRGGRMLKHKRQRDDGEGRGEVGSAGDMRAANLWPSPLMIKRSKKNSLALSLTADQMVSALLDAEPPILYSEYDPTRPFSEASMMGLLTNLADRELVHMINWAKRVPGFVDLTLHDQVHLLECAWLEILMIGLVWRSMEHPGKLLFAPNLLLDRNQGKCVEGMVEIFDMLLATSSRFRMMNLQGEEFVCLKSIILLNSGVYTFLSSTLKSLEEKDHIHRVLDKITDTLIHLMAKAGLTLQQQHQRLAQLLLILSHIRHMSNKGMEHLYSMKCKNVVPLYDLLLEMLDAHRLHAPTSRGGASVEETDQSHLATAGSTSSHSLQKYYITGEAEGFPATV

C[C@]12CC[C@@H]3c4ccc(O)cc4CC[C@H]3[C@@H]1CC[C@@]2(O)C#Cc1cc(CN(CC(=O)[O-])CC(=O)[O-])nc(CN(CC(=O)[O-])CC(=O)[O-])c1.[Gd+3].[Na+] [EPTA-Gd]
Ki: 970 ± 70 nM

CC/C(=C(\c1ccc(C#Cc2cc(CN(CC(=O)[O-])CC(=O)[O-])nc(CN(CC(=O)[O-])CC(=O)[O-])c2)cc1)c1ccc(OCCN(C)C)cc1)c1ccccc1.[Gd+3].[Na+] [TPTA-Gd]
Ki: 130 ± 6 nM
